For 22 molecules, IC50 results are on record in patent US20230391714A1, “INHIBITORS OF THE INTERACTION BETWEEN TRIP8B AND HCN CHANNELS AND USES THEREOF FOR TREATING NEUROLOGICAL DISEASES AND DISORDERS” (Northwestern University, priority 2022, published 2023).

Read-outs that look alike come from different tables or passages of the source.

In this assay the target is TRIP8b-HCN1c40 (Homo sapiens (Human), UniProt Q8IYB4). The assay can be described thus: TRIP8b-HCN1c40 AlphaScreen assay. The format is binding. As for the experimental part: AlphaScreen Assay. 20 nM ofGST-tagged HCNlc40 protein (corresponding to the C terminal 40 amino acids of HCN1) was incubated with 200 nM of His-tagged TRIP8b(241-602) and varying concentrations of the test compound as described in our prior report (Han et al., 2015). After a 3 h incubation, anti-GST AlphaScreen acceptor beads were added for 1.5 h followed by AlphaScreen nickel chelate donor beads for 1.5 h. AlphaScreen signal was quantified using a PerkinElmer (Waltham, MA) EnSpire multimode plate reader.
TRIP8b-HCN1c40, sequence (Q8IYB4 265-626): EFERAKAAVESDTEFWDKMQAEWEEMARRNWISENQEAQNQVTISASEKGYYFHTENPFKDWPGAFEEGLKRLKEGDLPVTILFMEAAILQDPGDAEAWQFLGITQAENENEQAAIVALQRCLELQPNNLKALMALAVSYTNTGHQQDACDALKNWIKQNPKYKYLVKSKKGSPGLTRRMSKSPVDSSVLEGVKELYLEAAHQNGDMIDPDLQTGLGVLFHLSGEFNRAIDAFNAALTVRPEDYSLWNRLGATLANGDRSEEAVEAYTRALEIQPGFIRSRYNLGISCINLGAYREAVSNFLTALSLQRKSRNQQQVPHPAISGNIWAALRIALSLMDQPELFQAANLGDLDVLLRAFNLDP
A general note: Bead proximity is the source of the signal in Alpha formats.

Where [1] appears, read: activity ranges, read-out: TRIP8b-HCN1c40 Alphascreen IC50 activity.
Setting [2] is: read-out: TRIP8b-HCN1c40 Alphascreen IC50.

As to `Cc1cc(C)c(-c2ccc(OCC(=O)NCc3ccc(Cl)cc3)c(CN3CCNCC3)c2)c(C)c1` [NUCC-0201629], the IC50 (commonly the point on the concentration scale where inhibition reaches its midpoint) is, setting by setting: under setting [1], 2 to 5 µM; under setting [2], 3.1 µM.

For the molecule `CN1CCN(Cc2ccc(-c3ccc(F)cc3)cc2OCC(=O)NCc2ccc(Cl)cc2)CC1` [NUCC-0202010], the IC50 under setting [1] lay in the range of 5 to 10 µM and the IC50 under setting [2] was determined as 5.7 µM.

In the case of `CN1CCN(Cc2cc(-c3ccc(Cl)c(Cl)c3)ccc2OCCNS(=O)(=O)c2ccc(Cl)cc2)CC1` [NUCC-0201975], the IC50 is, setting by setting: under setting [1], 1 to 2 µM; under setting [2], 1.7 µM. `Cc1ccccc1-c1ccc(OCC(=O)NCc2ccc(Cl)cc2)c(CN2CCNCC2)c1` [NUCC-0201617]: the IC50 is, setting by setting: under setting [1], 5 to 10 µM; under setting [2], 7.8 µM.

On to `CC(Oc1ccc(-c2ccc(C(F)(F)F)cc2)cc1CN1CCN(C)CC1)C(=O)NCc1ccc(Cl)cc1` (stereo not drawn) [NUCC-0202029], for which the IC50 under setting [1] fell in the range of 2 to 5 µM and the IC50 under setting [2] was 4.5 µM.

As to `CN1CCN(Cc2cc(-c3ccc(Cl)c(Cl)c3)ccc2OCC(=O)NC2Cc3ccc(Cl)cc3C2)CC1` (stereo not drawn) [NUCC-0201992], the IC50 is less than 1 µM under setting [1] and less than 0.74 µM under setting [2].

In the case of `Cc1ccc(-c2ccc(OCC(=O)Nc3ccc4c(c3)OCO4)c(CN3CCCN(C)CC3)c2)cc1` [NUCC-0201600], the IC50 was 5 to 10 µM under setting [1] and 9.2 µM under setting [2].

For the molecule `Cc1ccc([C@@H](C)NC(=O)C(C)Oc2ccc(-c3ccc(Cl)cc3)cc2CN2CCN(C)CC2)cc1` (stereo partly drawn) [NUCC-0202046], the IC50 reads like this: under setting [1], less than 1 µM; under setting [2], 0.84 µM. The matching figures for `CN1CCN(Cc2cc(-c3ccc(Cl)cc3)ccc2OCC(=O)Nc2ccc(Cl)c(Cl)c2)CC1` [NUCC-0201999]: less than 1 µM and less than 0.74 µM. The matching figures for `CC(C)c1ccc(-c2ccc(OCC(=O)NCc3ccc(Cl)cc3)c(CN3CCNCC3)c2)cc1` [NUCC-0201616]: 5 to 10 µM and 5.7 µM. The matching figures for `CN1CCN(Cc2cc(-c3cccc(S(C)(=O)=O)c3)ccc2OCC(=O)Nc2ccc(Cl)c(Cl)c2)CC1` [NUCC-0202022]: 2 to 5 µM and 2.7 µM.

For the molecule `CC(Oc1ccc(-c2ccc(Cl)cc2Cl)cc1CN1CCN(C)CC1)C(=O)NCc1ccc(Cl)cc1` (stereo not drawn) [NUCC-0202026], the IC50 is less than 1 µM under setting [1] and 0.91 µM under setting [2]. The matching figures for `CN1CCN(Cc2cc(-c3ccc(Cl)cc3Cl)ccc2OCC(=O)Nc2ccc(Cl)c(Cl)c2)CC1` [NUCC-0202001]: less than 1 µM and less than 0.74 µM. Regarding `CN1CCN(Cc2cc(-c3ccc(F)cc3)ccc2OCC(=O)NCCN2CCCCC2)CC1` [NUCC-0201230], the IC50 under setting [2] was more than 200 µM. For `Cc1cccc(-c2ccc(OCC(=O)Nc3cc(O)c(O)c(O)c3)c(CN3CC[C@H](N)C3)c2)c1` [NUCC-0201628], the IC50 by setting is: under setting [1], 5 to 10 µM; under setting [2], 7.8 µM. As to `Cc1ccc(-c2ccc(OCC(=O)NCc3cnc[nH]3)c(CN3CCC(N(C)C)CC3)c2)cc1` [NUCC-0201612], the IC50 under setting [2] was more than 40 µM. `C=Cc1ccc(-c2ccc(OCC(=O)NCc3ccc(Cl)cc3)c(CN3CCN(C)CC3)c2)cc1` [NUCC-0201713]: the IC50 is 2 to 5 µM under setting [1] and 4.7 µM under setting [2].

In the case of `CN1CCN(Cc2ccc(-c3ccc(Cl)cc3)cc2OCC(=O)NCc2ccc(Cl)cc2)CC1` [NUCC-0202009], the IC50 runs as follows: under setting [1], 1 to 2 µM; under setting [2], 1 µM. `Cc1ccc([C@@H](C)NC(=O)C(C)Oc2ccc(-c3ccc(Cl)c(Cl)c3)cc2CN2CCN(C)CC2)cc1` (stereo partly drawn) [NUCC-0202047]: the IC50 runs as follows: under setting [1], less than 1 µM; under setting [2], less than 0.74 µM. The corresponding values for `CSc1ccc(-c2ccc(OCC(=O)NCc3ccc(Cl)cc3)c(CN3CCN(C)CC3)c2)cc1` [NUCC-0201710] are 2 to 5 µM and 2.9 µM. The corresponding values for `CN1CCN(Cc2cc(Oc3ccc(F)cc3)ccc2OCC(=O)NCc2ccc(Cl)cc2)CC1` [NUCC-0201229] are 5 to 10 µM and 7.1 µM. As to `Cc1cccc(-c2ccc(OCC(=O)Nc3ccc(Cl)c(Cl)c3)c(CN3CC[C@H](N)C3)c2)c1` [NUCC-0201621], the IC50 runs as follows: under setting [1], 1 to 2 µM; under setting [2], 1.3 µM.
